Laboratory results from paper PMC8868518, “Exploring Titanium(IV) Complexes as Potential Antimicrobial Compounds” (Antibiotics, 2022).
Where two headings read alike, the source gives them in different places.

What was measured:
[1] = tested on: S. aureus MRSA (ATCC 43300); test: CO-ADD antibacterial assay, growth inhibition (OD600); type: cell-based, Staphylococcus aureus
Description: (§1) Dry compounds ranging from 1–2 mg were weighed into properly labeled Eppendorf tubes and sealed with parafilm. The compounds were used as received by the CO-ADD. For the screenings, most compounds were dissolved to a stock concentration of 10 mg/mL in DMSO. K2[Ti(Citrate)3], Na3Citrate, and K2[TiO(Oxalate)2] were dissolved in warm water. […] Samples were diluted in water to a final testing concentration of 32 µg/mL while keeping the final co-solvent concentration to a maximum of 0.5%. Where applicable, compounds were serially diluted 1:2 fold eight times. Each sample concentration was prepared in 384-well plates, non-binding surface plate (NBS; Corning 3640) for each bacterial/fungal strain, tissue-culture treated (TC-treated; Corning 3712/3764), black for mammalian cell types and polypropylene 384-well (PP; Corning 3657) for hemolysis assays, all in duplicate (n = 2), and keeping the final DMSO concentration to a maximum of 0.5%. All sample preparation was conducted using liquid handling robots.
(§2) For the bacterial assays, four Gram-negative bacteria (E. coli (ATCC 25922, Manassas, VA, USA); K. pneumoniae (ATCC 700603), A. baumannii; (ATCC 19606), and P. aeruginosa (ATCC 27853) and the Gram-positive bacteria (S. aureus MRSA (ATCC 43300) were used. Each strain was cultured in cation-adjusted Mueller Hinton broth (CAMHB; Bacto Laboratories 212322, Mount Pritchard, Australia) at 37 °C overnight. A sample of each culture was then diluted 40-fold in fresh CAMHB and incubated at 37 °C for 1.5–3 h. The resultant mid-log phase cultures were diluted with CAMHB (CFU/mL measured by OD600), then added to each well of the compound-containing plates (384-well non-binding surface (NBS) plates; Corning CLS3640, Millipore Sigma, Burlington, MA, USA), giving a cell density of 5 × 10^5 CFU/mL and a total volume of 50 µL. Plates were covered and incubated at 37 °C for 18 h without shaking. Inhibition of bacterial growth was determined by measuring absorbance at 600 nm (OD600) with a Tecan M1000 Pro monochromator plate reader, using media-only as negative control and bacteria without inhibitors as a positive control. […] Colistin sulfate (Sigma C4461) and vancomycin HCl (Sigma 861987) were used as internal controls on each plate for Gram-negative and Gram-positive bacteria, respectively.

[2] = tested on: A. baumannii (ATCC 19606); test: as above; type: cell-based, Acinetobacter baumannii; settings: up to 32 μg/mL
Description: as §1, §2

E. coli (ATCC 25922) = test: as above; type: cell-based, Escherichia coli; settings: up to 32 μg/mL
Description: as §1, §2

[3] = tested on: K. pneumoniae (ATCC 700603); test: as above; type: cell-based, Klebsiella pneumoniae; settings: up to 32 μg/mL
Description: as §1, §2

[4] = tested on: P. aeruginosa (ATCC 27853); test: as above; type: cell-based, Pseudomonas aeruginosa; settings: up to 32 μg/mL
Description: as §1, §2

C. albicans (ATCC 90028) = test: CO-ADD antifungal assay, growth inhibition (OD630); type: cell-based, Candida albicans; settings: up to 32 μg/mL
Description: (§3) The compounds were used as received by the CO-ADD. For the screenings, most compounds were dissolved to a stock concentration of 10 mg/mL in DMSO. K2[Ti(Citrate)3], Na3Citrate, and K2[TiO(Oxalate)2] were dissolved in warm water. [Cu(Deferasirox)(H2O)]2 was dissolved in pyridine after its solubility was determined to be excellent in pyridine due to coordination of the solvent to the metal producing [Cu(Deferasirox)(pyridine)]2 in situ. […] Each sample concentration was prepared in 384-well plates, non-binding surface plate (NBS; Corning 3640) for each bacterial/fungal strain, tissue-culture treated (TC-treated; Corning 3712/3764), black for mammalian cell types and polypropylene 384-well (PP; […] All sample preparation was conducted using liquid handling robots. For the fungal assays, the fungi (C. albicans (ATCC 90028) and C. neoformans) (ATCC 208821) were used. Both fungi (yeast) strains were cultured for 3 days on Yeast Extract-Peptone Dextrose (YPD; Becton Dickinson 242720, Thermo Fisher Scientific, Waltham, MA, USA) agar at 30 °C. A yeast suspension of 1 × 10^6 to 5 × 10^6 CFU/mL (as determined by OD530) was prepared from five colonies from the agar plates, subsequently diluted with Yeast Nitrogen Base media (YNB; Becton Dickinson 233520, Thermo Fisher Scientific, Waltham, MA, USA), and added to each well of the compound-containing plates (384-well plates, NBS; Corning CLS3640) giving a final cell density of 2.5 × 10^3 CFU/mL and a total volume of 50 μL. Plates were covered and incubated at 35 °C for 36 h without shaking. […] Sigma R7017) and incubation at 35 °C for 2 h, using media-only as a negative control and fungi without inhibitors as a positive control. […] Fluconazole (Sigma F8929) was used as an internal control on each plate for both strains.

[5] = tested on: C. neoformans (ATCC 208821); test: CO-ADD antifungal assay, growth inhibition (resazurin, OD600-570); type: cell-based, Cryptococcus neoformans; settings: up to 32 μg/mL
Description: as §3

[6] = tested on: HEK293 ATCC CRL-1573 human embryonic kidney cells; test: CO-ADD cytotoxicity assay (resazurin); type: cell-based; settings: all concentrations examined (0.25-32 μg/mL), 20 h; CC50 could not be measured
Description: The compounds were used as received by the CO-ADD. For the screenings, most compounds were dissolved to a stock concentration of 10 mg/mL in DMSO. K2[Ti(Citrate)3], Na3Citrate, and K2[TiO(Oxalate)2] were dissolved in warm water. [Cu(Deferasirox)(H2O)]2 was dissolved in pyridine after its solubility was determined to be excellent in pyridine due to coordination of the solvent to the metal producing [Cu(Deferasirox)(pyridine)]2 in situ. […] Each sample concentration was prepared in 384-well plates, non-binding surface plate (NBS; Corning 3640) for each bacterial/fungal strain, tissue-culture treated (TC-treated; Corning 3712/3764), black for mammalian cell types and polypropylene 384-well (PP; […] All sample preparation was conducted using liquid handling robots. HEK293 ATCC CRL-1573 human embryonic kidney cells were counted manually in a Neubauer hemocytometer and added to compound-containing plates (384-well plates, tissue culture-treated (TC); […] Life Technologies 11995-073) with 10% FBS (GE SH30084.03).

MRC-5 cells [7] = settings: cited from earlier work
MRC-5 cells [8] = test: MRC-5 cell viability, dose-response treatment, MTT assay; type: cell-based, human; settings: MRC-5 cells, MTT, 72 h, pH 7.4, n = 6, this work
Description: A thawed stock of MRC-5 cells was washed with 1X PBS and resuspended in phenol red DMEM media (supplemented with 10% FBS and 1% of penicillin-streptomycin) and then seeded in a 100 mm × 20 mm (complete, O.D. x H) petri dish and grown in a 5% (v/v) CO2 humidified atmosphere at 37 °C. At least three passages were performed to ensure the integrity of the cells. After this point, cells were collected, thoroughly washed with 1X PBS, and then resuspended in phenol red-free DMEM (supplemented with 10% FBS, 1% Streptomycin/Penicillin, and 2.4 mM L-glutamine) at a 2.0 × 10^5 cells/mL concentration. Approximately 100 µL of the cell solution was seeded into wells of several 96-well plates to begin the MTT assay, which was performed in the 5% (v/v) CO2 humidified atmosphere at 37 °C. At least one lane of wells in each plate was supplied media without cells as a control. […] Most of the compounds were dissolved in 1X PBS buffer at pH 7.4. […] Titanocene dichloride was prepared as a fresh stock solution in DMSO and then diluted in 0.1 M NaCl (aq) instead of 1X PBS (to minimize hydrolysis induced precipitation) to the desired concentration while maintaining a constant 1% (v/v) DMSO background (0.5% DMSO after mixing with the well media). A control of cells treated with media containing 1% (v/v) DMSO was included in the study. The titanocene solutions were used within an hour of preparation in the final cell solution. […] At 3 h before a total of 72 h of incubation with the compounds, the cells were treated with 25 µL of 9 mg/mL MTT prepared in 1X PBS and sterile-filtered. Upon completion of the three hours, 50 µL of 10% (w/v) SDS (prepared in 0.1 M Tris buffer at pH 11) was added to solubilize the purple formazan product crystals and left overnight in the incubator. Control wells in the plates consisted of: (1) Untreated cells + MTT as the measure of 100% viable cell growth in the media and (2) Media with no cells + MTT as the measure of zero cells in the media. Two sets of compounds could be tested per plate. The plates were read at the wavelength of 570 nm (absorbance of the formazan product at pH 10.0) and 800 nm (background control) using a Tecan plate reader. The absorbance of all wells was compared to the absorbance of the untreated cells with the MTT set as the 100% viable cell standard and the absorbance of the zero cell control set as the 0% viable cell standard. […] Nonlinear regression in Origin 8.5 was utilized to fit the growth curves using the pharmacology dose–response equation to determine the half-maximal inhibitory concentration (IC50) and the corresponding standard deviation. All samples were tested six times.

[9] = predicted or measured MIC, lowest concentration with ≥75% growth inhibition, 0.25-32 μg/mL, 18 h
[10] = predicted or measured MIC, ≥75% growth inhibition
[11] = predicted or measured MIC, ≥75% growth inhibition, 36 h

| Molecule | MIC S. aureus (MRSA) [1, 9] [µg/mL] | Dmax S. aureus (MRSA), maximum % inhibition ([1]; up to 32 μg/mL) [%] | MIC A. baumannii [2, 10] [µg/mL] | Dmax A. baumannii, maximum % inhibition [2] [%] | MIC E. coli (E. coli (ATCC 25922); [10]) [µg/mL] | Dmax E. coli, maximum % inhibition (E. coli (ATCC 25922)) [%] | MIC K. pneumoniae [3, 10] [µg/mL] | Dmax K. pneumoniae, maximum % inhibition [3] [%] | MIC P. aeruginosa [4, 10] [µg/mL] | Dmax P. aeruginosa, maximum % inhibition [4] [%] | MIC C. albicans (C. albicans (ATCC 90028); [11]) [µg/mL] | Dmax C. albicans, maximum % inhibition (C. albicans (ATCC 90028)) [%] | MIC C. neoformans [5, 11] [µg/mL] | Dmax C. neoformans, maximum % inhibition [5] [%] | further results |
| --- | --- | --- | --- | --- | --- | --- | --- | --- | --- | --- | --- | --- | --- | --- | --- |
| 4-[(3Z,5E)-3,5-Bis(6-oxocyclohexa-2,4-dien-1-ylidene)-1,2,4-triazolidin-1-yl] benzoic acid [Compound 4, reference compound] | >32 | 44.31 | >32 | 18.95 | >32 | 7.72 | >32 | 20.2 | >32 | 5.82 | >32 | 4.31 | >32 | −25.58 | antiproliferative effect against HEK293 (in words) [6]: inactive; IC50 ± SD (µM) (MRC-5 cells [7]): Proliferative Behavior; increase in the proliferation of MRC-5 cells (MRC-5 cells [7]): nearly three-fold increase |
| Oc1ccccc1-c1n[nH]c(-c2ccccc2O)n1 [Compound 3, 2-[3-(2-Hydroxyphenyl)-1H-1,2,4-triazol-5-yl]phenol, reference compound] |  |  |  |  |  |  |  |  |  |  |  |  |  |  | activity against MRSA (in words) ([1]; CO-ADD screen, 32 μg/mL): inactive; MIC ([1]; Staphylococcus aureus, predicted or measured MIC, lowest concentration with ≥75% growth inhibition, 0.25-32 μg/mL, 18 h): > 32 µg/mL; Dmax ([1]; Staphylococcus aureus, up to 32 μg/mL, read-out: Dmax S. aureus (MRSA), maximum % inhibition): -2.34%; MIC ([2]; Acinetobacter baumannii, ATCC19606, predicted or measured MIC, ≥75% growth inhibition): > 32 µg/mL; Dmax ([2]; Acinetobacter baumannii, ATCC19606, read-out: Dmax A. baumannii, maximum % inhibition): -1.93%; MIC (E. coli (ATCC 25922); Escherichia coli, ATCC25922, predicted or measured MIC, ≥75% growth inhibition): > 32 µg/mL; Dmax (E. coli (ATCC 25922); Escherichia coli, ATCC25922, read-out: Dmax E. coli, maximum % inhibition): -9.07%; MIC ([3]; Klebsiella pneumoniae, ATCC700603, predicted or measured MIC, ≥75% growth inhibition): > 32 µg/mL; Dmax ([3]; Klebsiella pneumoniae, ATCC700603, read-out: Dmax K. pneumoniae, maximum % inhibition): 4.11%; MIC ([4]; Pseudomonas aeruginosa, ATCC27853, predicted or measured MIC, ≥75% growth inhibition): > 32 µg/mL; Dmax ([4]; Pseudomonas aeruginosa, ATCC27853, read-out: Dmax P. aeruginosa, maximum % inhibition): 10%; MIC (C. albicans (ATCC 90028); Candida albicans, ATCC90028, predicted or measured MIC, ≥75% growth inhibition, 36 h): > 32 µg/mL; Dmax (C. albicans (ATCC 90028); Candida albicans, ATCC90028, read-out: Dmax C. albicans, maximum % inhibition): 6.23%; MIC ([5]; Cryptococcus neoformans, ATCC208821, predicted or measured MIC, ≥75% growth inhibition, 36 h): > 32 µg/mL; Dmax ([5]; Cryptococcus neoformans, ATCC208821, read-out: Dmax C. neoformans, maximum % inhibition): -7.23%; IC50 ± SD (µg/mL) (MRC-5 cells [7]): >>25.3 µg/mL; IC50 (MRC-5 cells [7]; read-out: IC50 ± SD): > 100 µM |
| K2[Ti(Citrate)3] [Compound 7] | >32 | 38.01 | >32 | 17.94 | >32 | 10.41 | >32 | 15.43 | >32 | 7.99 | >32 | 44.53 | >32 | −7.88 | IC50 ± SD (µg/mL) (MRC-5 cells [8]): >>73.2 µg/mL; IC50 (MRC-5 cells [8]; read-out: IC50 ± SD): > 100 µM |
